For eight compounds, GI50 and TGI results are on record in PubChem BioAssay (NCI).

Structures are written as SMILES.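 Exposure lasted 48 hours, with cells grown in 96-well plates and compounds tested at five concentrations. GI50 marks 50% less growth. TGI is the concentration that stops growth completely.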

Test systems include HL-60(TB) leukemia; COLO 205 colon; SF-539 CNS; LOX IMVI melanoma; SF-268 CNS; SF-295 CNS; OVCAR-8 ovarian; OVCAR-3 ovarian; HCT-15 colon; CAKI-1 renal.
What all share (experiment): growth of human tumour cells (NCI), 48 h

`CCc1n(Cc2ccc3ccccc3c2)cc[n+]1Cc1ccc2ccccc2c1`: the GI50 in the assay on HL-60(TB) leukemia was 0.249 µM; in the assay with COLO 205 colon, 0.376 µM; with SF-539 CNS, 0.8 µM; in the assay on LOX IMVI melanoma it was 0.649 µM; in the assay on SF-268 CNS, 0.817 µM; in the assay with SF-295 CNS, 1.43 µM. Moreover, the GI50 is 0.76 µM in the assay with OVCAR-8 ovarian, 0.466 µM with OVCAR-3 ovarian, 3.94 µM with HCT-15 colon and 12.4 µM in the assay with CAKI-1 renal. The TGI in the assay with HL-60(TB) leukemia came to 1.17 µM; in the assay with COLO 205 colon, 1.73 µM; in the assay on SF-539 CNS, 2.3 µM; with LOX IMVI melanoma it was 1.96 µM; in the assay on SF-268 CNS it was 2.42 µM; in the assay on SF-295 CNS, 4 µM. Moreover, the TGI in the assay with OVCAR-8 ovarian turned out to be 3.13 µM; in the assay with OVCAR-3 ovarian it was 1.74 µM; in the assay with HCT-15 colon it was 15.3 µM; in the assay on CAKI-1 renal, 25.5 µM.
Take `O=[N+]([O-])c1cc2c(ccc3ccccc32)o1`: the GI50 was 0.331 µM with HL-60(TB) leukemia; 0.268 µM in the assay with COLO 205 colon; 0.617 µM in the assay on SF-539 CNS; 0.166 µM in the assay with LOX IMVI melanoma; 0.455 µM with SF-268 CNS; 0.347 µM in the assay on SF-295 CNS. In addition, the GI50 in the assay on OVCAR-8 ovarian is 0.55 µM; in the assay with OVCAR-3 ovarian, 1.31 µM; in the assay with HCT-15 colon, 0.345 µM; in the assay with CAKI-1 renal it was 0.31 µM. In addition, the TGI worked out at 4.52 µM with HL-60(TB) leukemia; 1.04 µM in the assay on COLO 205 colon; 2.97 µM in the assay with SF-539 CNS; 0.487 µM in the assay on LOX IMVI melanoma; 9.73 µM in the assay with SF-268 CNS; 3.34 µM in the assay on SF-295 CNS. For the same compound, the TGI worked out at 5.83 µM in the assay on OVCAR-8 ovarian, 4.64 µM in the assay on OVCAR-3 ovarian, 2.35 µM in the assay with HCT-15 colon and 3.06 µM in the assay on CAKI-1 renal.
Regarding `CCOC(=O)c1nc2sc(Cl)cn2c1/C=N/N=C(N)N`, the GI50 in the assay with HL-60(TB) leukemia was 26.1 µM; with COLO 205 colon, 15.1 µM; in the assay with SF-539 CNS it was 42.7 µM; in the assay on LOX IMVI melanoma it was 25.3 µM; in the assay on SF-268 CNS, 32 µM; with SF-295 CNS, 27.7 µM. Moreover, the GI50 with OVCAR-8 ovarian was 26.9 µM; with OVCAR-3 ovarian, 21.5 µM; in the assay on HCT-15 colon, 26.8 µM; with CAKI-1 renal, 27 µM. The TGI in the assay on HL-60(TB) leukemia was greater than 100 µM; in the assay with COLO 205 colon, 37.9 µM; in the assay on SF-539 CNS it was greater than 100 µM; in the assay on LOX IMVI melanoma it was greater than 54.6 µM; in the assay with SF-268 CNS it was greater than 100 µM; with SF-295 CNS it was greater than 52.3 µM. The TGI in the assay on OVCAR-8 ovarian is greater than 53.8 µM; in the assay with OVCAR-3 ovarian, 42.1 µM; in the assay with HCT-15 colon it was greater than 75.2 µM; in the assay on CAKI-1 renal, greater than 76.9 µM.
As to `CC(C)CC1CC2C(=O)N(c3ccccc3)C(=O)C2c2[nH]c3ccccc3c21` (stereo not given), the TGI in the assay with HL-60(TB) leukemia was greater than 31.6 µM; with COLO 205 colon, greater than 100 µM; in the assay on SF-539 CNS, 99.4 µM; in the assay with LOX IMVI melanoma, greater than 87.8 µM; in the assay on SF-268 CNS, greater than 100 µM; with SF-295 CNS, greater than 94.4 µM. Besides, the TGI is 51.6 µM with OVCAR-8 ovarian, 42.7 µM with OVCAR-3 ovarian, greater than 31.6 µM with HCT-15 colon and 72.7 µM with CAKI-1 renal.
In the case of `COc1ccc(C2=NC(CO)[C@H](c3ccccc3)O2)cc1OC` (stereo not given in full), the TGI in the assay on HL-60(TB) leukemia, in the assay with COLO 205 colon, with SF-539 CNS, in the assay with LOX IMVI melanoma, in the assay with SF-268 CNS and with SF-295 CNS was greater than 100 µM each time. The TGI in the assay with OVCAR-8 ovarian, in the assay with OVCAR-3 ovarian, in the assay with HCT-15 colon and in the assay on CAKI-1 renal was greater than 100 µM in each case.
Take `COc1cc2c(cc1OCCCN1CCN(CCCOc3cc4c(cc3OC)C(=O)N3C[C@H](F)C[C@H]3C=N4)CC1)N=C[C@@H]1C[C@@H](F)CN1C2=O`: the GI50 was less than 0.045 µM in the assay with HL-60(TB) leukemia; 0.0373 µM in the assay with COLO 205 colon; 0.0216 µM with SF-539 CNS; 0.0176 µM with LOX IMVI melanoma; 0.0248 µM with SF-268 CNS; 0.0457 µM with SF-295 CNS. Also, the GI50 is 0.134 µM in the assay with OVCAR-8 ovarian, 0.119 µM with OVCAR-3 ovarian, 2.15 µM in the assay on HCT-15 colon and 0.0683 µM in the assay with CAKI-1 renal. Besides, the TGI in the assay with HL-60(TB) leukemia was 0.797 µM; in the assay on COLO 205 colon, 0.193 µM; in the assay with SF-539 CNS it was 1.23 µM; in the assay with LOX IMVI melanoma, 0.145 µM; in the assay with SF-268 CNS, 5.94 µM; in the assay with SF-295 CNS, greater than 100 µM. In addition, the TGI turned out to be 16.2 µM with OVCAR-8 ovarian, 2.91 µM in the assay with OVCAR-3 ovarian, 12.9 µM with HCT-15 colon and 2 µM in the assay on CAKI-1 renal.
Consider `COc1cccc(C2=C(c3cn(C)c4c(C)cccc34)C(=O)NC2=O)c1`, for which the GI50 was greater than 25 µM with HL-60(TB) leukemia; greater than 25 µM in the assay on COLO 205 colon; greater than 25 µM in the assay with SF-539 CNS; greater than 25 µM with LOX IMVI melanoma; greater than 25 µM with SF-268 CNS; 17.4 µM in the assay with SF-295 CNS. In addition, the GI50 is greater than 25 µM in the assay on OVCAR-8 ovarian, 16.5 µM in the assay on OVCAR-3 ovarian, 14.2 µM in the assay on HCT-15 colon and greater than 14.1 µM in the assay on CAKI-1 renal. Also, the TGI in the assay with HL-60(TB) leukemia, in the assay with COLO 205 colon, in the assay with SF-539 CNS, in the assay on LOX IMVI melanoma, in the assay on SF-268 CNS and in the assay with SF-295 CNS was greater than 25 µM in each case. Moreover, the TGI in the assay on OVCAR-8 ovarian, with OVCAR-3 ovarian, in the assay with HCT-15 colon and in the assay with CAKI-1 renal was greater than 25 µM each time.
With `N#C/C(=C\c1ccccn1)c1nc2ccccc2o1`, the GI50 in the assay with HL-60(TB) leukemia is 15.3 µM; in the assay on COLO 205 colon, 44.9 µM; in the assay on SF-539 CNS it was 23.8 µM; with LOX IMVI melanoma, 17 µM; in the assay on SF-268 CNS, 31.3 µM; with SF-295 CNS, 84.2 µM. Besides, the GI50 with OVCAR-8 ovarian is 36.2 µM; in the assay on OVCAR-3 ovarian, 29.7 µM; in the assay with HCT-15 colon, 20.7 µM; with CAKI-1 renal it was 35.1 µM. Also, the TGI with HL-60(TB) leukemia is 76.2 µM; with COLO 205 colon, greater than 100 µM; with SF-539 CNS, 66.5 µM; in the assay with LOX IMVI melanoma, 38.1 µM; in the assay with SF-268 CNS, greater than 100 µM; in the assay on SF-295 CNS, greater than 100 µM. The TGI was greater than 100 µM in the assay on OVCAR-8 ovarian, greater than 100 µM in the assay with OVCAR-3 ovarian, 55.8 µM in the assay on HCT-15 colon and greater than 100 µM in the assay on CAKI-1 renal.
